The source made the active and inactive calls. No cut-off for these calls is given here.
Tests used:
Hep 3B2 [1] = experiment: Growth inhibition of human Hep3B cells at 10 uM after 48 hrs in presence of curcumin by MTT assay; assay type: functional
[2] = biological target: Glycogen synthase kinase-3 beta (Homo sapiens) (UniProt P49841); experiment: Inhibition of GSK3beta phosphorylation at Ser9 in human Hep3B cells assessed as ratio of phosphorylated GSK3beta to beta-actin level at 10 uM after 48 hrs by Western blot analysis; assay type: cell-based
Sequence of Glycogen synthase kinase-3 beta (Homo sapiens) (P49841 whole entry, looked up): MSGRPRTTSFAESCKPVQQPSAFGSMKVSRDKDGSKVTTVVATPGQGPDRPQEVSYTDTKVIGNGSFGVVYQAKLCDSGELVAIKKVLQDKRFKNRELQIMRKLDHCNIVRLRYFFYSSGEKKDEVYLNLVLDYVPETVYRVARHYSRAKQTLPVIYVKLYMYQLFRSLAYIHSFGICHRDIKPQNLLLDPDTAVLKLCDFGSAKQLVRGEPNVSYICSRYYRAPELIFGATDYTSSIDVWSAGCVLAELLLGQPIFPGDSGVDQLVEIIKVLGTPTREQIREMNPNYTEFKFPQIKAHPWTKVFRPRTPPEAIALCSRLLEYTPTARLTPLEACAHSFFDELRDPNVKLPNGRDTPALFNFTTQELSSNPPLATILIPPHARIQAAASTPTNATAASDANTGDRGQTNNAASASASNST

Hep 3B2 [3] = experiment: Effect on total GSK3beta expression in human Hep3B cells assessed as ratio of GSKbeta to beta-actin level at 10 uM after 48 hrs by Western blot analysis; assay type: cell-based; settings: hep 3b2, 48 h
Hep 3B2 [4] = experiment: Down regulation of RTN2 expression in human Hep3B cells at 1 uM after 6 to 24 hrs by L1000 expression profiling method relative to control; assay type: functional
Hep 3B2 [5] = experiment: Cell cycle arrest in human Hep3B cells assessed as accumulation at sub-G1 phase at 10 uM after 48 hrs in presence of curcumin by propidium iodide staining based flow cytometry (reference value: 3.7 +/- 0.4%); assay type: functional
Hep 3B2 [6] = experiment: Growth inhibition of human Hep3B cells at 5 uM after 48 hrs in presence of curcumin by MTT assay; assay type: functional
Hep 3B2 [7] = experiment: Down regulation of PPOX expression in human Hep3B cells at 1 uM after 6 to 24 hrs by L1000 expression profiling method relative to control; assay type: functional
Hep 3B2 [8] = experiment: Down regulation of SUPV3L1 expression in human Hep3B cells at 1 uM after 6 to 24 hrs by L1000 expression profiling method relative to control; assay type: functional
Hep 3B2 [9] = experiment: Cell cycle arrest in human Hep3B cells assessed as accumulation at G2/M phase at 10 uM after 48 hrs in absence of curcumin by propidium iodide staining based flow cytometry (reference value: 36.6 +/- 2.9%); assay type: functional
Hep 3B2 [10] = experiment: Down regulation of EXT1 expression in human Hep3B cells at 1 uM after 6 to 24 hrs by L1000 expression profiling method relative to control; assay type: functional
Hep 3B2 [11] = experiment: Growth inhibition of human Hep3B cells at 20 uM up to 72 hrs by MTT assay; assay type: functional, cell-based
Hep 3B2 [12] = experiment: Up regulation of CCND1 expression in human Hep3B cells at 1 uM after 6 to 24 hrs by L1000 expression profiling method relative to control; assay type: functional
Hep 3B2 [13] = experiment: Down regulation of PIK3CA expression in human Hep3B cells at 1 uM after 6 to 24 hrs by L1000 expression profiling method relative to control; assay type: functional
Hep 3B2 [14] = experiment: Cytotoxicity against human Hep3B cells after 6 days by MTT assay; assay type: functional, cell-based; settings: 144 h
Hep 3B2 [15] = experiment: Induction of apoptosis in human Hep3B cells assessed as ratio of cleaved caspase-3 to beta actin level at 10 uM after 48 hrs in absence of curcumin by Western blot analysis; assay type: functional
Hep 3B2 [16] = experiment: Cell cycle arrest in human Hep3B cells assessed as accumulation at S phase at 10 uM after 48 hrs in absence of curcumin by propidium iodide staining based flow cytometry (reference value: 23.8 +/- 1.9%); assay type: functional
Hep 3B2 [17] = experiment: Down regulation of SLC27A3 expression in human Hep3B cells at 1 uM after 6 to 24 hrs by L1000 expression profiling method relative to control; assay type: functional
Hep 3B2 [18] = experiment: Induction of apoptosis in human Hep3B cells assessed as ratio of cleaved caspase-3 to beta actin level at 10 uM after 48 hrs in presence of curcumin by Western blot analysis; assay type: functional
HT-29 = experiment: Cytotoxicity against human HT-29 cells after 6 days by MTT assay; assay type: functional, cell-based; settings: HT-29, 144 h
Hep 3B2 [19] = experiment: Down regulation of CD40 expression in human Hep3B cells at 1 uM after 6 to 24 hrs by L1000 expression profiling method relative to control; assay type: functional
Hep 3B2 [20] = experiment: Down regulation of CHAC1 expression in human Hep3B cells at 1 uM after 6 to 24 hrs by L1000 expression profiling method relative to control; assay type: functional
Hep 3B2 [21] = experiment: Down regulation of PTK2B expression in human Hep3B cells at 1 uM after 6 to 24 hrs by L1000 expression profiling method relative to control; assay type: functional
Hep 3B2 [22] = experiment: Down regulation of FZD1 expression in human Hep3B cells at 1 uM after 6 to 24 hrs by L1000 expression profiling method relative to control; assay type: functional
Hep 3B2 [23] = experiment: Down regulation of HTRA1 expression in human Hep3B cells at 1 uM after 6 to 24 hrs by L1000 expression profiling method relative to control; assay type: functional
Hep 3B2 [24] = experiment: Down regulation of ARL4C expression in human Hep3B cells at 1 uM after 6 to 24 hrs by L1000 expression profiling method relative to control; assay type: functional
Hep 3B2 [25] = experiment: Down regulation of HIST2H2BE expression in human Hep3B cells at 1 uM after 6 to 24 hrs by L1000 expression profiling method relative to control; assay type: functional
Hep 3B2 [26] = experiment: Down regulation of PLA2G4A expression in human Hep3B cells at 1 uM after 6 to 24 hrs by L1000 expression profiling method relative to control; assay type: functional
Hep 3B2 [27] = experiment: Down regulation of SNX7 expression in human Hep3B cells at 1 uM after 6 to 24 hrs by L1000 expression profiling method relative to control; assay type: functional
Hep 3B2 [28] = experiment: Down regulation of IL1B expression in human Hep3B cells at 1 uM after 6 to 24 hrs by L1000 expression profiling method relative to control; assay type: functional
Hep 3B2 [29] = experiment: Down regulation of GRB7 expression in human Hep3B cells at 1 uM after 6 to 24 hrs by L1000 expression profiling method relative to control; assay type: functional
Hep 3B2 [30] = experiment: Cell cycle arrest in human Hep3B cells assessed as accumulation at G2/M phase at 2.5 uM after 72 hrs by propidium iodide staining based flow cytometry (reference value: 28.7 to 32.3%); assay type: functional
Hep 3B2 [31] = experiment: Induction of apoptosis in human Hep3B cells assessed as ratio of cleaved caspase-3 to beta actin level at 40 uM after 72 hrs in presence of curcumin by Western blot analysis; assay type: functional
Hep 3B2 [32] = experiment: Cell cycle arrest in human Hep3B cells assessed as accumulation at G0/G1 phase at 10 uM after 48 hrs by propidium iodide staining based flow cytometry (reference value: 39.7 to 40.4%); assay type: functional
Hep 3B2 [33] = experiment: Cell cycle arrest in human Hep3B cells assessed as accumulation at G0/G1 phase at 10 uM after 72 hrs by propidium iodide staining based flow cytometry (reference value: 41.6 to 46.2%); assay type: functional
Hep 3B2 [34] = experiment: Cell cycle arrest in human Hep3B cells assessed as accumulation at S phase at 40 uM after 24 hrs by propidium iodide staining based flow cytometry (reference value: 22.6 to 27.1%); assay type: functional
Hep 3B2 [35] = experiment: Cell cycle arrest in human Hep3B cells assessed as accumulation at G0/G1 phase at 2.5 uM after 24 hrs by propidium iodide staining based flow cytometry (reference value: 36.3 to 39.0%); assay type: functional
Hep 3B2 [36] = experiment: Cell cycle arrest in human Hep3B cells assessed as accumulation at sub-G1 phase at 40 uM after 24 hrs by propidium iodide staining based flow cytometry (reference value: 1.9 to 3.6%); assay type: functional

For O=C1COc2ccccc2N1Cc1cn(CCC2OCCO2)nn1, the CI (Hep 3B2 [1]) was 0.89, the Ratio [2] was 0.7 and the Ratio (Hep 3B2 [3]) was 0.8. It also gave a log2FC (Hep 3B2 [4]) of -4.1606, an Activity (Hep 3B2 [5]) of 21.6% and a CI (Hep 3B2 [6]) of 0.92. For the same compound, the log2FC (Hep 3B2 [7]) was -3.7552, the log2FC (Hep 3B2 [8]) was -4.4808 and the Activity (Hep 3B2 [9]) was 37.1%. For the same compound, the log2FC (Hep 3B2 [10]) was -4.2621, the “growth inhibition (GI)” value (Hep 3B2 [11]) was “Active” and the log2FC (Hep 3B2 [12]) was 3.2544. For the same compound, the log2FC (Hep 3B2 [13]) was -4.2586, the IC50 (Hep 3B2 [14]) was 0.5 µM and the Ratio (Hep 3B2 [15]) was 2.8. The Activity (Hep 3B2 [16]) was 13.9%, the log2FC (Hep 3B2 [17]) was -3.1535 and the Ratio (Hep 3B2 [18]) was 1.4. The IC50 (HT-29) was 5.7 µM, the log2FC (Hep 3B2 [19]) was -3.3087 and the log2FC (Hep 3B2 [20]) was -4.0849. It also gave a log2FC (Hep 3B2 [21]) of -3.3744, a log2FC (Hep 3B2 [22]) of -3.5324 and a log2FC (Hep 3B2 [23]) of -3.2036. For the same compound, the log2FC (Hep 3B2 [24]) was -3.744, the log2FC (Hep 3B2 [25]) was -4.2274 and the log2FC (Hep 3B2 [26]) was -3.7476. For the same compound, the log2FC (Hep 3B2 [27]) was -4.1511, the log2FC (Hep 3B2 [28]) was -3.3463 and the log2FC (Hep 3B2 [29]) was -4.419.

Work on COc1ccc(CNC(=O)Nc2ncc([N+](=O)[O-])s2)cc1 yielded an Activity (Hep 3B2 [30]) of 35.3%, a Ratio (Hep 3B2 [31]) of 1.1 and an Activity (Hep 3B2 [32]) of 39.4%. It also gave an Activity (Hep 3B2 [33]) of 43.3%, an Activity (Hep 3B2 [34]) of 21.1% and an Activity (Hep 3B2 [35]) of 36.8%. For the same compound, the Activity (Hep 3B2 [36]) was 6.5%.

From ChEMBL document CHEMBL4024707, “Using gene expression database to uncover biology functions of 1,4-disubstituted 1,2,3-triazole analogues synthesized via a copper (I)-catalyzed reaction” (Eur J Med Chem, 2017)
